Source: patent US9677140B2, “Molecular diagnostic test for cancer” (Almac Diagnostics Limited, priority 2010, dated 2017)

What was measured:
[1] = tested on: HCC1937 BRCA1 mutant and HCC1937-BR (BRCA1 corrected) breast cancer cell-lines; experiment: Cell viability assay (CellTitre-Glo), determination of cisplatin sensitivity; format: cell-based; details: HCC1937 BRCA1 mutant cell-line relative to the BRCA1 corrected cell-line (HCC1937-BR); 96 hours exposure
Protocol: For measurement of sensitivity to cisplatin, exponentially growing cells were seeded into 96-well plates. […] Cells were incubated in the presence of drug for 96 hours following which time the viability of the cells was assessed using the Promega CellTitre-Glo luminescent cell viability assay. The sensitivity of the cells was calculated as the percentage of vehicle (DMSO) control.

[2] = tested on: HCC1937 BRCA1 mutant and HCC1937-BR (BRCA1 corrected) breast cancer cell-lines; details: HCC1937 BRCA1 mutant cell-line relative to the BRCA1 corrected cell-line (HCC1937-BR); constant exposure, 12-14 days
Protocol: The HCC1937 parental, HCC1937-EV and HCC1937-BR cell-lines were kindly donated by Professor Paul Harkin from Queen's University College Belfast (QUB). The cell-lines were routinely maintained in RPMI-1640 medium supplemented with 50 U penicillin/ml, 50 μg streptomycin/ml, 2 mM glutamine, 1 mM Sodium Pyruvate and 20% (v/v) fetal bovine serum (FBS). The HCC1937-EV and HCC937-BR cell-lines also required 0.2 ml/mg geneticin. Cell-lines were cultured at 37° C. with a humidified atmosphere of 5% CO2.
Twenty-four hours following seeding the cells were exposed to medium containing increasing doses of drug. Cell medium was replenished every 4-5 days. After 12-14 days the cells were fixed in methanol, stained with crystal violet and counted. The percentage survival of control for a given dose was calculated as the plating efficiencies for that dose divided by the plating efficiencies of vehicle-treated cells. Survival curves and half maximal inhibitory concentration (IC50) values were calculated using GraphPad Prism.

| SMILES | sensitivity to cisplatin (cell viability) [1] | sensitivity to PARP-1 inhibitor (clonogenic survival) [2] |
| --- | --- | --- |
| N.N.[Cl][Pt][Cl] [cisplatin] | more sensitive | – |
| O=C(c1cc(Cc2n[nH]c(=O)c3ccccc23)ccc1F)N1CCCNCC1 [KU0058948] | – | more sensitive |
